In PMC9503112, “Synthesis, Molecular Docking, In Vitro and In Vivo Studies of Novel Dimorpholinoquinazoline-Based Potential Inhibitors of PI3K/Akt/mTOR Pathway” (International Journal of Molecular Sciences, 2022):
Several values for one entry are separate records, joined by “and”; a condition that tells them apart may be missing. Equal values may be shown once. Entries after “also recorded” stand apart in the source; their conditions may differ.

What was measured:
MCF7 = test: Antiproliferative activity, MTT assay; format: cell-based; details: Homo sapiens, 72 h, standard deviations within 50%
Description: (§1) Human breast cancer MCF7, MDA-MB-231, SkBr-3 (purchased from the ATCC collection), human keratinocytes HaCaT, murine fibroblasts L929 and macrophages J774 cells (Collection of Shemyakin-Ovchinnikov Institute of Bioorganic Chemistry RAS) were cultured in standard DMEM or RPMI-1640 medium (ThermoScientific, Waltham, MA, USA) supplemented with 10% fetal bovine serum (FBS, Cytiva, Marlborough, MA, USA) at 37 °C, 5 % CO2 and 80–85% humidity (NuAir CO2 incubator). The cell growth was evaluated by MTT (3-[4,5-dimethylthiazol-2-yl]-2,5-diphenyltetrazolium bromide) test. Cells were seeded at a density of 5 × 10^3 cells per well in 96-well flat-bottomed plates (TPP). The compounds were dissolved in DMSO (AppliChem) to 10 mM before the experiments, and then the resulting solutions were diluted by the medium to the required concentrations. Solutions of the tested compounds with different concentrations in 100 μL of the medium were added and the cells were grown for 72 h. MTT (10 μL/well, 5 mg/mL) was added for the final 3 h. The formazan purple crystals were dissolved in DMSO (100 μL per well). The absorbance of solutions was measured at 540 nm with a MultiScan reader (ThermoFisher). Results were analyzed by Excel package (Microsoft). The inhibition of proliferation (inhibitory index) was calculated as [1–(ODexperiment/ODcontrol)], where OD was MTT optical density. IC50 (Table 1) was determined as the concentration giving 50% of inhibition in the comparison with it […].

keratinocytes HaCaT = test: Antiproliferative activity, MTT assay; format: cell-based; details: Homo sapiens, 72 h, standard deviations within 50%
Description: as §1

MDA-MB-231 = test: Antiproliferative activity, MTT assay; format: cell-based, human
Description: as §1

fibroblasts L929 = test: Antiproliferative activity, MTT assay; format: cell-based, murine; details: Mus musculus, 72 h, standard deviations within 50%
Description: as §1

macrophages J774 = test: Antiproliferative activity, MTT assay; format: cell-based, murine; details: Mus musculus, 72 h, standard deviations within 50%
Description: as §1

[1] = test system: PI3K/Akt/mTOR signaling pathway in MCF7 cells; test: Immunoblotting of PI3K/Akt/mTOR phosphorylation; format: cell-based, human
Description: MCF7 cells were seeded onto 100 mm dishes (Corning) and cultivated for 24 h. Compound 7c was added at different concentrations while the reference compound wortmannin (Selleckchem, Houston, TX, USA) was used at 500 nM. The cells were harvested after 72 h of growth with the compounds. To prepare cell extracts, MCF7 cells were twice washed in phosphate buffer and incubated for 10 min on ice in the modified lysis buffer containing 50 mM Tris-HCl, pH 7.5, 0.5% Igepal CA-630, 150 mM NaCl, 1 mM EDTA, 1 mM DTT, 1 mM PMSF, 0.1 mM sodium orthovanadate and aprotinin, leupeptin, pepstatin (1 µg/mL each). The protein content was determined by the Bradford method. Cell lysates were separated in 10% SDS-PAGE under reducing conditions, transferred to a nitrocellulose membrane (GE HealthCare, Chicago, IL, USA), and processed according to a standard protocol. To prevent nonspecific absorption, the membranes were treated with 5% nonfat milk solution in TBS buffer (20 mM Tris, 500 mM NaCl, pH 7.5) with 0.1% Tween-20 and then incubated with primary antibodies (Cell Signaling Technology, Danvers, MA, USA) overnight at 4 °C. […] Signals were detected using the ECL reagent using the ImageQuant LAS4000 system (GE HealthCare, Chicago, IL, USA).
The signals of phospho-proteins to total ones were calculated using the ImageJ program from inverted images of the bands.

[2] = test system: colorectal murine tumor Colon26; test: In vivo tumor growth; set-up: species or system BALB/c mice
Description: Murine colorectal CT26 (ATCC, CRL-2639) adenocarcinoma tumor cell line was used in the study. Cells were grown in RPMI-1640 supplemented with 10% fetal calf serum (FCS) and pen-strep-glut (all from PanEco, Moscow, Russian Federation). Cells were passaged by trypsinization using Trypsin/EDTA solution (PanEco, Moscow, Russian Federation) twice a week. Cell authentication was not performed by the authors.
Six- to eight-week-old female BALB/c mice were obtained from the Pushchino branch of Shemyakin-Ovchinnikov Institute of Bioorganic Chemistry RAS. All studies were conducted in an AAALAC accredited facility in compliance with the PHS Guidelines for the Care and Use of Animals in Research, protocol #325 from 24.05.2021
Colon-26 cells (10^5) were subcutaneously (s.c.) injected into the depilated flanks of 6-week-old female BALB/c mice. Mice (n = 20) were divided in three groups: control mice (n = 8) were injected with vehicle only; mice from group 1 (n = 6) and 2 (n = 6) were treated with 50 µL of 1 mM 7c injected s.c. near the tumors. […] The perpendicular diameter of each tumor was measured twice a week, and tumor volume was calculated using the following formula: tumor volume (mm^3) = a × b^2 × 0.5, where a represents the longest diameter, b represents the shortest diameter, and 0.5 is a constant used to calculate the volume of an ellipsoid. […]

Solubility = format: physicochemical

IC50 (MCF7): 200 nM | IC50 (MDA-MB-231; Homo sapiens, MDA-MB-231, MTT, 72 h, standard deviations within 50%): 1000 nM | Solubility (Solubility): soluble only in DMSO
SMILES: O=C(NCCc1cccnc1)Nc1ccc(-c2ccc3c(N4CCOCC4)nc(N4CCOCC4)nc3c2)cc1 [Compound 7c, 1-(4-(2,4-Dimorpholinoquinazolin-7-yl)phenyl)-3-(2-(pyridin-3-yl)ethyl)urea]
IC50 (keratinocytes HaCaT): 6000 nM | Toxicity for MDA-MB-231 (wild type PI3K) lower than for MCF7 (mutant PI3K) (MDA-MB-231; MDA-MB-231 versus MCF7): 5 times | IC50 (fibroblasts L929): 3000 nM | IC50 (macrophages J774): 400 nM | Concentration inhibiting phosphorylation of Akt, mTOR, S6K (PI3K/Akt/mTOR proteins) [1]: 125 to 250 nM and 250 to 500 nM | Effect on tumor growth, late treatment of large tumors (group 2) ([2]; 50 µL of 1 mM 7c s.c. around tumor, from 400–500 mm^3, three injections): less evident but still significant; also recorded: tumor destruction | Effect on tumor growth, early treatment (group 1) ([2]; 50 µL of 1 mM 7c s.c. near tumor, once in 3 days, from 2–8 mm^3, post three injections, p < 0.05): significant
